Entries after “also recorded” stand apart in the source; their conditions may differ.
How the values were obtained:
Format in all cases: cell-based, human
[1] = system: PBMCs derived from HCV-infected (Ab+VL+) patients; test: CD3+CD4+FoxP3+ cell induction in PBMC cultures from HCV-infected patients (flow cytometry); details: 10 μg/ml peptide, 5 days; for increase in CD3+CD4+FoxP3+ cells: PBMCs from Ab+VL+ patients, vs medium alone
Text: (§1) HCV-seropositive subjects with persistent viremia (Ab^+VL^+), patients who spontaneously resolved infection (Ab^+VL^−) and HCV-seronegative, non-infected (Ab^−VL^−) individuals were recruited from the Rhode Island Adult Corrections Institution (ACI) to participate in this study. Recruitment methods and the population are described elsewhere. The Institutional Review Boards of the Miriam Hospital, Rhode Island Department of Corrections and Office of Human Research Protection approved this study. All HCV infected subjects included in these analyses were infected with HCV genotype 1a or 1b (Versant HCV genotype assay 2, Siemens Healthcare Diagnostics Inc.). Hartford Hospital Transplantation Research Laboratory (Hartford, Conn.) and the Cellular Mediated Immunology Core Laboratory at the University of Rhode Island (Providence, R.I.) performed HLA typing.
Cryopreserved PBMCs were thawed; suspended in HEPES-buffered RPMI1640 medium supplemented with 10% HuAB serum (Valley Biomedical, Winchester, Va.), glutamine, 100 U/ml penicillin and 100 μg/ml streptomycin; and rested overnight at 37° C. in a humidified, CO2 incubator. On the following day, the PBMCs were centrifuged and resuspended in fresh medium containing 5% HuAB serum; 1×10^6 cells/nil were transferred to deep, flat-bottom, non-treated 48-well plates. The peptide sequence indicated in the text was added (10 μg/ml final concentration) and the cells were incubated for 5 days. PBMCs cultured in the presence of medium with 0.1% DMSO served as a negative control. Half the spent medium was replaced on day 3. The cells were collected for analysis on day 5.
The cells collected after 5 days incubation were quantified and characterized in accordance with methods we described previously. Dye-conjugated mouse monoclonal antibodies specific for the following determinants were purchased from BioLegend (San Diego, Calif.) and used: CD3, CD4 (clone OKT4), CD8a (clone HIT8a); CD39 (clone A1), and CD304 (clone 14H4); anti-human CD25 (clone M-A251) and anti-human FoxP3 (clone 236a) were purchased BD Biosciences (San Jose, Calif.). Data were collected on a 4 laser (13 color capability) BD LSRII Flow Cytometer (BD Biosciences, San Jose, Calif.) and analyzed using FlowJo software (Tree Star, Inc., Ashland, Oreg.). All analyses were conducted using the appropriate isotype controls to correct for non-specific staining PBMCs were cultured in the presence of medium alone, 10 μg/ml HCV_G1_p7_794, or 10 μg/ml HCV_G1_NS4b_1941.
The results were analyzed using the SigmaStat statistics program (Aspire Software International). Individual means were compared using a non-paired Student's t test or a Mann-Whitney Rank Sum test.
The cells were collected after 5 days incubation and analyzed by flow cytometry (FIGS. 1A-1C). The CD3+CD4+FoxP3+ cells were further characterized by the expression of CD25 and CD39 (FIG. 1B). The gating scheme and representative analyses are shown.

[2] = system: PBMCs derived from non-infected (Ab-VL-) individuals; test: CD3+CD4+FoxP3+ cell induction in PBMC cultures from non-infected individuals (flow cytometry); details: 10 μg/ml peptide, 5 days
Text: as §1, with “typing. […]” for “typing.”
The cells collected after 5 days incubation were quantified and characterized in accordance with methods we described previously. […] Data were collected on a 4 laser (13 color capability) BD LSRII Flow Cytometer (BD Biosciences, San Jose, Calif.) and analyzed using FlowJo software (Tree Star, Inc., Ashland, Oreg.). […]
The results were analyzed using the SigmaStat statistics program (Aspire Software International). […]

[3] = system: CFSE-labeled Ab+VL+ PBMCs; test: CFSE proliferation assay with or without anti-CD3
Description: For proliferation assays, cells rested overnight were labeled with carboxyfluorescein diacetate, succinimidyl ester (CFSE: Life Technologies Corporation, Carlsbad, Calif.) prior to culture in the presence or absence of 30 ng/ml anti-CD3 monoclonal antibody (clone HIT3a; BioLegend, San Diego, Calif.) and 10 μg/ml HCV_G1_p7_794. Cell proliferation was evaluated by flow cytometric analysis according to the protocol provided by Life Technologies in which a loss in fluorescence intensity correlates directly with the extent of replication.
The hallmark of CD3^+CD4^+FoxP3^+ Treg cells is suppressor activity. CSFE-labeled, Ab^+VL^+ PBMCs were cultured with medium alone or medium that contained 30 ng/ml anti-CD3, 10 μg/ml HCV_G1_p7_794 or a combination of anti-CD3 and HCV_G1_p7_794. After 5 days incubation, the cells were collected and proliferation the total (FIG. 3BA) and CD3^+CD4^+ (FIG. 3B) PBMC populations was estimated by flow cytometry. Data were obtained in a single experiment representative of the results obtained for PBMCs derived from six HCV-infected patients.

Sequence	increase in CD3+CD4+FoxP3+ cells [1]	increase in CD3+CD4+FoxP3+ cells [2]	increase in CD3+CD4+FoxP3+ cells ([2]; vs medium alone)	CD25 and CD39 expression by induced CD3+CD4+FoxP3+ cells ([1]; Ab+VL+ PBMCs)	CD304 (neuropilin) expression by CD4+FoxP3+ cells ([1]; Ab+VL+ PBMCs)	effect on proliferative response to anti-CD3 monoclonal antibody ([3]; 30 ng/ml anti-CD3 plus 10 μg/ml peptide, 5 days, total or CD3+CD4+ population)	effect on proliferation of CD3+CD4+ T cells ([3]; 10 μg/ml peptide alone, no anti-CD3, 5 days)
AARVTQILSSL TITQLLKRLHQWI [HCV_G1_NS4b_1941, reference compound]	failed to promote an increase						
PLLLLLLSLPPRA [Human p7_794]	significant increase	three	significant increase				
ISGIQYLAGLSTLPGNPA [HCV_G1_NS4b_1769, reference compound]	failed to elicit a CD3+CD4+FoxP3+ cell response						
WPLLLLLLALPQRAYAQ (Hepatitis C virus) [HCV_G1_p7_794]	marked increase			expressed both CD25; also recorded: vast majority of these cells expressed CD39	vast majority of CD4^+FoxP3^+ cells among Ab^+VL^+ PBMCs cultured in the presence of HCV_G1_p7_794 were CD304-negative; also recorded: only a minority	reproducible, albeit slight, decrease	no effect

From patent US10188710B2, “Regulatory T cell epitope and hepatitis C virus homolog” (Rhode Island Council on Postsecondary Education, priority 2013, dated 2019)
